In the supplement of paper PMC10307832:

What was measured:
Test in all cases: relative viability (nuclei count vs DMSO), 5 days (fraction); higher = more cells survive
Calu-6 = test system: Calu-6
Procedure, shortened: (§1)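 Values are medians from duplicate plates. Each reflects relative viability, defined as the nuclei count of treated wells over that of vehicle wells. Lung cancer cell lines in 1536-well plates were pin-tool dosed one day after seeding with one drug alone or with a fixed anchor-drug dose plus five library-drug doses (not always all listed) in √10 steps, then fixed, stained and imaged at 4× after 5 days.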

IA-LM = test system: IA-LM
Procedure, shortened: as §1

NCI-H1703 = test system: NCI-H1703
Procedure, shortened: as §1

EBC-1 = test system: EBC-1
Procedure, shortened: as §1

NCI-H1437 = test system: NCI-H1437
Procedure, shortened: as §1

NCI-H1355 = test system: NCI-H1355
Procedure, shortened: as §1

LCLC-97TM1 = test system: LCLC-97TM1
Procedure, shortened: as §1

A549 = test system: A549
Procedure, shortened: as §1

NCI-H1299 = test system: NCI-H1299
Procedure, shortened: as §1

NCI-H596 = test system: NCI-H596
Procedure, shortened: as §1

## Cc1csc(=NC2CCCCC2)n1/N=C/c1ccc(O)c(O)c1O [MIM1] + C[C@@H](Oc1cc(-c2cnn(C3CCNCC3)c2)cnc1N)c1c(Cl)ccc(F)c1Cl [Crizotinib] (partner 1 µM)
Calu-6; first compound 0.2 µM
  relative viability: 0.785
Calu-6; first compound 0.6325 µM
  relative viability: 0.826
Calu-6; first compound 2 µM
  relative viability: 0.696
Calu-6; first compound 6.325 µM
  relative viability: 0.36
Calu-6; first compound 20 µM
  relative viability: 0.186
IA-LM; first compound 0.2 µM
  relative viability: 0.697
IA-LM; first compound 0.6325 µM
  relative viability: 0.789
IA-LM; first compound 2 µM
  relative viability: 0.773
IA-LM; first compound 6.325 µM
  relative viability: 0.443
IA-LM; first compound 20 µM
  relative viability: 0.204
NCI-H1703; first compound 0.2 µM
  relative viability: 0.534
NCI-H1703; first compound 0.6325 µM
  relative viability: 0.482
NCI-H1703; first compound 2 µM
  relative viability: 0.455
NCI-H1703; first compound 6.325 µM
  relative viability: 0.175
NCI-H1703; first compound 20 µM
  relative viability: 0.127
EBC-1; first compound 0.2 µM
  relative viability: 0.207
EBC-1; first compound 0.6325 µM
  relative viability: 0.196
EBC-1; first compound 2 µM
  relative viability: 0.195
EBC-1; first compound 6.325 µM
  relative viability: 0.196
EBC-1; first compound 20 µM
  relative viability: 0.227
NCI-H1437; first compound 0.2 µM
  relative viability: 0.888
NCI-H1437; first compound 0.6325 µM
  relative viability: 0.839
NCI-H1437; first compound 2 µM
  relative viability: 0.864
NCI-H1437; first compound 6.325 µM
  relative viability: 0.559
NCI-H1437; first compound 20 µM
  relative viability: 0.631
NCI-H1355; first compound 0.2 µM
  relative viability: 1.04
NCI-H1355; first compound 0.6325 µM
  relative viability: 1.16
NCI-H1355; first compound 2 µM
  relative viability: 1
NCI-H1355; first compound 6.325 µM
  relative viability: 0.94
NCI-H1355; first compound 20 µM
  relative viability: 0.516
LCLC-97TM1; first compound 0.2 µM
  relative viability: 0.327
LCLC-97TM1; first compound 0.6325 µM
  relative viability: 0.38
LCLC-97TM1; first compound 2 µM
  relative viability: 0.441
LCLC-97TM1; first compound 6.325 µM
  relative viability: 0.214
LCLC-97TM1; first compound 20 µM
  relative viability: 0.12
A549; first compound 0.2 µM
  relative viability: 0.709
A549; first compound 0.6325 µM
  relative viability: 0.715
A549; first compound 2 µM
  relative viability: 0.762
A549; first compound 6.325 µM
  relative viability: 0.402
A549; first compound 20 µM
  relative viability: 0.227
NCI-H1299; first compound 0.2 µM
  relative viability: 0.857
NCI-H1299; first compound 0.6325 µM
  relative viability: 0.975
NCI-H1299; first compound 2 µM
  relative viability: 0.975
NCI-H1299; first compound 6.325 µM
  relative viability: 0.966
NCI-H1299; first compound 20 µM
  relative viability: 0.904
NCI-H596; first compound 0.2 µM
  relative viability: 0.965
NCI-H596; first compound 0.6325 µM
  relative viability: 1.11
NCI-H596; first compound 2 µM
  relative viability: 0.832
NCI-H596; first compound 6.325 µM
  relative viability: 0.921
NCI-H596; first compound 20 µM
  relative viability: 0.741

## CCNC(=O)c1noc(-c2cc(C(C)C)c(O)cc2O)c1-c1ccc(CN2CCOCC2)cc1 [Luminespib] + CS(=O)(=O)CCNCc1ccc(-c2ccc3ncnc(Nc4ccc(OCc5cccc(F)c5)c(Cl)c4)c3c2)o1 [Lapatinib] (partner 2 µM)
Calu-6; first compound 0.002 µM
  relative viability: 1.11
Calu-6; first compound 0.006325 µM
  relative viability: 0.962
Calu-6; first compound 0.02 µM
  relative viability: 1.38
Calu-6; first compound 0.06325 µM
  relative viability: 0.166
Calu-6; first compound 0.2 µM
  relative viability: 0.119
IA-LM; first compound 0.002 µM
  relative viability: 0.929
IA-LM; first compound 0.006325 µM
  relative viability: 0.935
IA-LM; first compound 0.02 µM
  relative viability: 0.643
IA-LM; first compound 0.06325 µM
  relative viability: 0.0552
IA-LM; first compound 0.2 µM
  relative viability: 0.066
NCI-H1703; first compound 0.002 µM
  relative viability: 1.14
NCI-H1703; first compound 0.006325 µM
  relative viability: 1.07
NCI-H1703; first compound 0.02 µM
  relative viability: 0.998
NCI-H1703; first compound 0.06325 µM
  relative viability: 0.158
NCI-H1703; first compound 0.2 µM
  relative viability: 0.16
EBC-1; first compound 0.002 µM
  relative viability: 0.204
EBC-1; first compound 0.006325 µM
  relative viability: 0.223
EBC-1; first compound 0.02 µM
  relative viability: 0.233
EBC-1; first compound 0.06325 µM
  relative viability: 0.187
EBC-1; first compound 0.2 µM
  relative viability: 0.194
NCI-H1437; first compound 0.002 µM
  relative viability: 0.819
NCI-H1437; first compound 0.006325 µM
  relative viability: 0.748
NCI-H1437; first compound 0.02 µM
  relative viability: 0.703
NCI-H1437; first compound 0.06325 µM
  relative viability: 0.243
NCI-H1437; first compound 0.2 µM
  relative viability: 0.102
NCI-H1355; first compound 0.002 µM
  relative viability: 0.891
NCI-H1355; first compound 0.006325 µM
  relative viability: 1.02
NCI-H1355; first compound 0.02 µM
  relative viability: 0.461
NCI-H1355; first compound 0.06325 µM
  relative viability: 0.664
NCI-H1355; first compound 0.2 µM
  relative viability: 0.153
LCLC-97TM1; first compound 0.002 µM
  relative viability: 1.33
LCLC-97TM1; first compound 0.006325 µM
  relative viability: 0.759
LCLC-97TM1; first compound 0.02 µM
  relative viability: 0.318
LCLC-97TM1; first compound 0.06325 µM
  relative viability: 0.197
LCLC-97TM1; first compound 0.2 µM
  relative viability: 0.139
A549; first compound 0.002 µM
  relative viability: 0.983
A549; first compound 0.006325 µM
  relative viability: 0.903
A549; first compound 0.02 µM
  relative viability: 0.897
A549; first compound 0.06325 µM
  relative viability: 0.627
A549; first compound 0.2 µM
  relative viability: 0.0491
NCI-H1299; first compound 0.002 µM
  relative viability: 1.04
NCI-H1299; first compound 0.006325 µM
  relative viability: 0.965
NCI-H1299; first compound 0.02 µM
  relative viability: 0.989
NCI-H1299; first compound 0.06325 µM
  relative viability: 0.892
NCI-H1299; first compound 0.2 µM
  relative viability: 0.219
NCI-H596; first compound 0.002 µM
  relative viability: 1.18
NCI-H596; first compound 0.006325 µM
  relative viability: 0.99
NCI-H596; first compound 0.06325 µM
  relative viability: 0.933
NCI-H596; first compound 0.2 µM
  relative viability: 0.969
